24 molecules from patent US20110306606A1, “NOVEL 2,6-SUBSTITUTED-3-NITROPYRIDINE DERIVATIVE, METHOD FOR PREPARING SAME, AND PHARMACEUTICAL COMPOSITION INCLUDING SAME” (priority 2008, published 2011) can be followed below.

Where two headings read alike, the source gives them in different places.

One data set relates to MC3T3-E1 cells. Put plainly: Alkaline phosphatase (ALP) activity in MC3T3-E1 cells. It counts as cell-based. The conditions noted are these: 1 μM compound, 3 days; for activity at 1 µM: Mus musculus, 72 h, MC3T3-E1 cell, read-out: ALP activity (1 μM, % of Control) MC3T3-E1 cell. The method, then: Differentiation and activity of osteoblasts were indirectly evaluated by measuring an ALP activity having a close relationship with osteogenesis.
Osteoblasts (Calvarial cells) prepared in Experimental Example 1 and MC3T3-E1 cells (available from RIKEN Cell Bank, Japan) were collected in α-MEM supplemented with 10% FBS, followed by cell counting. The cells were dispensed into 24-well cultureware at a density of 2×10^4 cells/well. After culturing of the cells for 24 hours, the culture media were discarded and replaced with fresh media in which test compounds were diluted to a concentration of 1 μM (1 mL/well). In addition, the vehicle control group containing 0.1% DMSO was also treated. […] When the experiment was terminated, the supernatant was removed and the cells were washed three times with cold phosphate buffer at 4°. 0.2% Triton X-100 was added to the washed cells which were then subjected to three cycles of freezing at −70° and thawing at room temperature for the complete lysis of cells. The cell extracts were pooled and centrifuged to collect the cell supernatant which was used for the measurement of ALP activity and proteins. The protein concentration was measured using a BCA assay kit (manufactured by Sigma-Aldrich). For the measurement of ALP activity, p-nitrophenylphosphate was added to the cell supernatant which was then incubated at 37° for 30 minutes, and the reaction was terminated with the addition of 50 μL of 0.2N sodium hydroxide. The standard curve was plotted at the absorbance of 405 nm using p-nitrophenol as a standard material and then the absorbance of test materials thus reacted was measured to determine the production amount of p-nitrophenol.
The ALP activity was calculated by dividing the amount of p-nitrophenol produced from each test material by the protein amount and the reaction time. Therefore, the unit of ALP activity was given in terms of p-nitrophenol/μg protein/min. The results are given in Tables 28-1 and 28-2 where the ALP activity unit of each test material was given in terms of % change through the comparison between the individual test materials and the vehicle control group.

Data set [1] has as its system formation of osteoclasts in co-culture of bone marrow cells and osteoblasts. Put plainly: Osteoclastogenesis inhibition via co-culture system (TRAP staining). Format: cell-based, mice. As to conditions: Mus musculus, Osteoclast, 168 h; 1 μM compound, 7 days co-culture, TRAP-positive multinucleated osteoclasts vs vehicle control. A digest of the protocol:
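Bone marrow cells from male ddY mice were co-cultured with osteoblasts for 7 days in α-MEM/10% FBS with 10^−8 M 1α,25-dihydroxyvitamin D3 and dexamethasone. Compound was present at 1 μM final and refreshed every 2–3 days. TRAP-positive cells with 6–7 nuclei were counted, with % inhibition relative to DMSO vehicle (n=4).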

Data set [2] relates to Osteoblasts (Calvarial cells). Put plainly: Alkaline phosphatase (ALP) activity in osteoblasts (Calvarial cells). Format: cell-based, mice. As to conditions: Mus musculus, 72 h; 1 μM compound, 3 days, Calvarial cell; read-out: ALP activity (1 μM, % of Control) Calvarial cell. The essentials:
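Primary calvarial osteoblasts or MC3T3-E1 cells in α-MEM with 10% FBS were treated with 1 μM compound, against a 0.1% DMSO vehicle. Cell lysates were incubated with p-nitrophenylphosphate at 37° for 30 minutes and read at 405 nm. ALP activity was expressed as p-nitrophenol/μg protein/min and reported as % change versus vehicle.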

Data set [3] relates to Osteoblasts (Calvarial cells). As to conditions: ICR, mouse, 72 h, 1 μM.
The subject of data set [4] is Osteoblasts (Calvarial cells). Put plainly: Cytotoxicity test (MTT). As to conditions: 1 μM compound, 72 hours, in comparison with vehicle control.

`O=[N+]([O-])c1ccc(NCc2cccnc2)nc1Nc1ccc(N2CCOCC2)cc1` [Compound 115, 2-(4-morpholinophenylamino)-6-[(3-pyridyl)methylamino]-3-nitropyridine]: the activity at 1 µM with MC3T3-E1 cells came to 148%; in data set [2], 127%. Moreover, 1 µM produced 89% inhibition in data set [1].
For `CC(C)(C)c1ccc(Nc2nc(NCCc3ccccn3)ccc2[N+](=O)[O-])cc1` [Compound 40, 2-[4-(t-butyl)phenylamino]-6-[2-(2-pyridyl)ethylamino]-3-nitropyridine], the “Cell viability (%) Calvarial cell” value in data set [3] came out at 82%. The activity at 1 µM amounted to 210% with MC3T3-E1 cells and 126% in data set [2]. In data set [1], this molecule displayed an inhibition at 1 µM of 89%.
Consider `COc1ccc(Nc2nc(NCCCn3ccnc3)ccc2[N+](=O)[O-])cc1` [Compound 25, 2-(4-methoxyphenylamino)-6-[(3-imidazol-1-yl)propylamino]-3-nitropyridine], for which the “Cell viability (%) Calvarial cell” value in data set [3] is 101%. Further, the activity at 1 µM in the data set on MC3T3-E1 cells is 148%; in data set [2], 126%. In data set [1], this molecule returned an inhibition at 1 µM of 98%.
As to `N#Cc1ccc(Nc2nc(N3CCC(O)CC3)ccc2[N+](=O)[O-])cc1` [Compound 47, 2-(4-cyanophenylamino)-6-(4-hydroxypiperidino)-3-nitropyridine], the “Cell viability (%) Calvarial cell” value in data set [3] is 88%. Further, the results for the activity at 1 µM (in the data set with MC3T3-E1 cells; in data set [2]) were 117% and 111%, respectively.
The matching figures for `COc1ccc(Nc2nc(NCc3ccncc3)ccc2[N+](=O)[O-])cc1` [Compound 22, 2-(4-methoxyphenylamino)-6-[(4-pyridyl)methylamino]-3-nitropyridine]: 92%, 123% and 121%.
With `CNc1ccc([N+](=O)[O-])c(Nc2ccc(C#N)cc2)n1` [Compound 45, 2-(4-cyanophenylamino)-6-(methylamino)-3-nitropyridine], in data set [3], the “Cell viability (%) Calvarial cell” value stood at 89%. The activity at 1 µM with MC3T3-E1 cells came to 124%; in data set [2] it was 133%.
Take `COc1ccc(Nc2nc(N3CCN=C3C)ccc2[N+](=O)[O-])cc1` [Compound 20, 2-(4-methoxyphenylamino)-6-[(2-methyl-4,5-dihydro)imidazol-1-yl]-3-nitropyridine]: the “ALP activity (1 μM, % of Control) MC3T3-E1 cell” value with MC3T3-E1 cells is given as 124 % of Control.
As for `CC(=O)c1cccc(Nc2nc(-n3ccnc3C(C)C)ccc2[N+](=O)[O-])c1` [Compound 101, 2-(3-acetylphenylamino)-6-[(2-isopropyl)imidazol-1-yl]-3-nitropyridine], the “Cell viability (%) Calvarial cell” value in data set [3] turned out to be 92%. Further, the activity at 1 µM in the data set with MC3T3-E1 cells was found to be 123%.
Regarding `O=[N+]([O-])c1ccc(NCc2ccncc2)nc1Nc1ccc(-n2ccnc2)cc1` [Compound 94, 2-[4-(imidazol-1-yl)phenylamino]-6-[(4-pyridyl)methylamino]-3-nitropyridine], the “Cell viability (%) Calvarial cell” value in data set [3] amounted to 85%. Besides, in the data set with MC3T3-E1 cells, the activity at 1 µM turned out to be 134%. In data set [1], this molecule yielded an inhibition at 1 µM of 93%.
As for `N#Cc1ccc(Nc2nc(NCc3ccncc3)ccc2[N+](=O)[O-])cc1` [Compound 50, 2-(4-cyanophenylamino)-6-[(4-pyridyl)methylamino]-3-nitropyridine], in data set [3], the “Cell viability (%) Calvarial cell” value amounted to 115%. Besides, the activity at 1 µM in the data set on MC3T3-E1 cells is 177%; in data set [2], 149%. Moreover, at 1 µM the inhibition in data set [1] was 94%.
As for `O=[N+]([O-])c1ccc(N2CCC(O)CC2)nc1Nc1ccc(N2CCOCC2)cc1` [Compound 112, 2-(4-morpholinophenylamino)-6-(4-hydroxypiperidino)-3-nitropyridine], in data set [3], the “Cell viability (%) Calvarial cell” value stood at 103%. The activity at 1 µM in the data set with MC3T3-E1 cells stood at 148%; in data set [2], 122%.
On to `COc1ccc(Nc2nc(N(C)CC3OCCO3)ccc2[N+](=O)[O-])cc1` [Compound 18, 2-(4-methoxyphenylamino)-6-[(N-[1,3]-dioxolan-2-ylmethyl)methylamino]-3-nitropyridine], for which the “ALP activity (1 μM, % of Control) MC3T3-E1 cell” value in the data set on MC3T3-E1 cells is given as 113 % of Control. In data set [4], the “Cell viability (%) Calvarial cell” value is reported as 91%.
As to `COc1ccc(Nc2nc(NC(C)C)ccc2[N+](=O)[O-])cc1` [Compound 16, 2-(4-methoxyphenylamino)-6-(isopropylamino)-3-nitropyridine], the “Cell viability (%) Calvarial cell” value in data set [3] turned out to be 100%. Further, the activity at 1 µM in the data set with MC3T3-E1 cells is 118%.
On to `CNc1ccc([N+](=O)[O-])c(Nc2ccc(N3CCOCC3)cc2)n1` [Compound 108, 2-(4-morpholinophenylamino)-6-(methylamino)-3-nitropyridine], for which the “Cell viability (%) Calvarial cell” value in data set [3] stood at 100%. Also, in the data set on MC3T3-E1 cells, the activity at 1 µM came to 111%.
As to `CC(=O)c1cccc(Nc2nc(N3CCN=C3C)ccc2[N+](=O)[O-])c1` [Compound 100, 2-(3-acetylphenylamino)-6-[(2-methyl-4,5-dihydro)imidazol-1-yl]-3-nitropyridine], the “ALP activity (1 μM, % of Control) MC3T3-E1 cell” value in the data set with MC3T3-E1 cells is 126 % of Control. Also, the “Cell viability (%) Calvarial cell” value in data set [4] is reported as 91%.
`Cc1ccc(Nc2nc(NCCCn3ccnc3)ccc2[N+](=O)[O-])cc1` [Compound 9, 2-(4-methylphenylamino)-6-[(3-imidazol-1-yl)propylamino]-3-nitropyridine]: the “Cell viability (%) Calvarial cell” value in data set [3] is listed as 121%. The activity at 1 µM is 175% in the data set on MC3T3-E1 cells and 129% in data set [2]. Also, in data set [1], the inhibition at 1 µM was determined as 93%.
For `CNc1ccc([N+](=O)[O-])c(Nc2cccc(C(C)=O)c2)n1` [Compound 96, 2-(3-acetylphenylamino)-6-(methylamino)-3-nitropyridine], the “Cell viability (%) Calvarial cell” value in data set [3] came to 90%. In addition, in the data set with MC3T3-E1 cells, the activity at 1 µM was determined as 137%.
Consider `CC(=O)c1cccc(Nc2nc(NCc3cccnc3)ccc2[N+](=O)[O-])c1` [Compound 102, 2-(3-acetylphenylamino)-6-[(3-pyridyl)methylamino]-3-nitropyridine], for which the “Cell viability (%) Calvarial cell” value in data set [3] stood at 92%. For the same molecule, the activity at 1 µM worked out at 126% in the data set with MC3T3-E1 cells and 122% in data set [2].
The matching figures for `O=[N+]([O-])c1ccc(NCCCn2ccnc2)nc1Nc1ccc(-n2ccnc2)cc1` [Compound 95, 2-[4-(imidazol-1-yl)phenylamino]-6-[(3-imidazol-1-yl)propylamino]-3-nitropyridine]: 93%, 185% and 138%.
Take `CC(C)(C)c1ccc(Nc2nc(NCCCn3ccnc3)ccc2[N+](=O)[O-])cc1` [Compound 39, 2-[4-(t-butyl)phenylamino]-6-[(3-imidazol-1-yl)propylamino]-3-nitropyridine]: the “Cell viability (%) Calvarial cell” value in data set [3] is given as 111%. For the same molecule, the activity at 1 µM with MC3T3-E1 cells was found to be 175%. The molecule further displayed an inhibition at 1 µM in data set [1] of 98%.
Turning to `CC(C)c1nccn1-c1ccc([N+](=O)[O-])c(Nc2ccc(C#N)cc2)n1` [Compound 49, 2-(4-cyanophenylamino)-6-[(2-isopropyl)imidazol-1-yl]-3-nitropyridine], the “Cell viability (%) Calvarial cell” value in data set [3] is recorded as 96%. Further, the figures for the activity at 1 µM (in the data set with MC3T3-E1 cells; in data set [2]) were 122% and 112%, respectively.
Take `CC(=O)c1cccc(Nc2nc(NCc3ccncc3)ccc2[N+](=O)[O-])c1` [Compound 103, 2-(3-acetylphenylamino)-6-[(4-pyridyl)methylamino]-3-nitropyridine]: in data set [3], the “Cell viability (%) Calvarial cell” value came to 93%. Moreover, in the data set on MC3T3-E1 cells, the activity at 1 µM stood at 151%. Moreover, testing at 1 µM in data set [1] gave an inhibition of 74%.
As for `O=[N+]([O-])c1ccc(NCCCn2ccnc2)nc1Nc1ccc(N2CCOCC2)cc1` [Compound 119, 2-(4-morpholinophenylamino)-6-[(3-imidazol-1-yl)propylamino]-3-nitropyridine], the “Cell viability (%) Calvarial cell” value in data set [3] is on record as 107%. The activity at 1 µM with MC3T3-E1 cells stood at 167%.
The matching figures for `COc1ccc(Nc2nc(-n3ccnc3C(C)C)ccc2[N+](=O)[O-])cc1` [Compound 21, 2-(4-methoxyphenylamino)-6-[(2-isopropyl)imidazol-1-yl]-3-nitropyridine]: 90% and 124%.

A word on the inhibition: it is the change of the read-out against control, counted positive when it falls.
